According to PubChem BioAssay (NCI):
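Test compounds were applied to cells in 96-well plates for 48 hours at 5 doses. Abbreviation: GI50, concentration required for 50% inhibition of growth. TGI: concentration producing complete growth inhibition.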

Tests used:
Test in all cases: NCI anticancer screen, dose series, 48 h
UACC-62 melanoma = tested on: UACC-62 melanoma
HOP-62 NSCLC = tested on: HOP-62 NSCLC
HS 578T breast = tested on: HS 578T breast
HL-60(TB) leukemia = tested on: HL-60(TB) leukemia
OVCAR-3 ovarian = tested on: OVCAR-3 ovarian
M14 melanoma = tested on: M14 melanoma
HOP-92 NSCLC = tested on: HOP-92 NSCLC
SK-MEL-5 melanoma = tested on: SK-MEL-5 melanoma
DU-145 prostate = tested on: DU-145 prostate
SK-MEL-2 melanoma = tested on: SK-MEL-2 melanoma
SK-MEL-28 melanoma = tested on: SK-MEL-28 melanoma
OVCAR-4 ovarian = tested on: OVCAR-4 ovarian
A498 renal = tested on: A498 renal
CAKI-1 renal = tested on: CAKI-1 renal
SF-539 CNS = tested on: SF-539 CNS
MDA-MB-231 breast = tested on: MDA-MB-231 breast
LOX IMVI melanoma = tested on: LOX IMVI melanoma
NCI/ADR-RES ovarian = tested on: NCI/ADR-RES ovarian
UACC-257 melanoma = tested on: UACC-257 melanoma
HCT-15 colon = tested on: HCT-15 colon
PC-3 prostate = tested on: PC-3 prostate
HT29 colon = tested on: HT29 colon
MCF7 breast = tested on: MCF7 breast
SN12C renal = tested on: SN12C renal
BT-549 breast = tested on: BT-549 breast
MOLT-4 leukemia = tested on: MOLT-4 leukemia
KM12 colon = tested on: KM12 colon
A549 NSCLC = tested on: A549 NSCLC

Cc1ccc(-c2c3c(nn2-c2ccc(S(=O)(=O)NC(=O)NC4CCCCC4)cc2)-c2ccccc2C3)cc1
TGI (UACC-62 melanoma): 32.2 µM
GI50 (HOP-62 NSCLC): 18.8 µM
TGI (HOP-62 NSCLC): 38.2 µM
GI50 (HS 578T breast): 20.5 µM
TGI (HS 578T breast): 60.4 µM
GI50 (HL-60(TB) leukemia): 5.17 µM
TGI (HL-60(TB) leukemia): 21.4 µM
GI50 (OVCAR-3 ovarian): 17.7 µM
TGI (OVCAR-3 ovarian): 35.7 µM
GI50 (M14 melanoma): 14.8 µM
TGI (M14 melanoma): 30.1 µM
GI50 (HOP-92 NSCLC): 2650 nM
TGI (HOP-92 NSCLC): 15.8 µM
GI50 (SK-MEL-5 melanoma): 1330 nM
TGI (SK-MEL-5 melanoma): 9.39 µM
GI50 (DU-145 prostate): 14.3 µM
TGI (DU-145 prostate): 28.7 µM
GI50 (SK-MEL-2 melanoma): 16.8 µM
TGI (SK-MEL-2 melanoma): 32 µM
GI50 (SK-MEL-28 melanoma): 18.3 µM
TGI (SK-MEL-28 melanoma): 37.5 µM
GI50 (OVCAR-4 ovarian): 18.2 µM
TGI (OVCAR-4 ovarian): 39.7 µM
TGI (A498 renal): 20 µM
GI50 (CAKI-1 renal): 18 µM
TGI (CAKI-1 renal): 41.8 µM
GI50 (SF-539 CNS): 9.48 µM
TGI (SF-539 CNS): 21.9 µM
GI50 (MDA-MB-231 breast): 21 µM
TGI (MDA-MB-231 breast): 43.2 µM
GI50 (LOX IMVI melanoma): 1820 nM
TGI (LOX IMVI melanoma): 3.73 µM
GI50 (NCI/ADR-RES ovarian): 16 µM
TGI (NCI/ADR-RES ovarian): 54.5 µM
GI50 (UACC-257 melanoma): 23.7 µM
TGI (UACC-257 melanoma): 49.6 µM
GI50 (HCT-15 colon): 16.1 µM
TGI (HCT-15 colon): 47.7 µM
GI50 (PC-3 prostate): 11.1 µM
TGI (PC-3 prostate): 25.3 µM
GI50 (HT29 colon): 24.3 µM
TGI (HT29 colon): > 100 µM
GI50 (MCF7 breast): 5.88 µM
TGI (MCF7 breast): 37.3 µM
GI50 (SN12C renal): 19.4 µM
TGI (SN12C renal): 35.6 µM
GI50 (BT-549 breast): 11.4 µM
TGI (BT-549 breast): 26.5 µM
GI50 (MOLT-4 leukemia): 1860 nM
TGI (MOLT-4 leukemia): 6.14 µM
GI50 (KM12 colon): 13 µM
TGI (KM12 colon): 38.2 µM
GI50 (A549 NSCLC): 20.2 µM
TGI (A549 NSCLC): 44 µM
